Results on one molecule are retold here after article PMC12666248, “Synthesis of an N‐Galactosyl Norbornane Aziridine and its Potent Mixed Inhibition of Aspergillus oryzae β‐Galactosidase” (Chembiochem, 2025).

For the experiment, the target named is T1, β-galactosidase (A. oryzae) (Aspergillus oryzae, UniProt Q2UCU3).
T1 construct: gene lacA
T1 sequence (Q2UCU3 19-1005): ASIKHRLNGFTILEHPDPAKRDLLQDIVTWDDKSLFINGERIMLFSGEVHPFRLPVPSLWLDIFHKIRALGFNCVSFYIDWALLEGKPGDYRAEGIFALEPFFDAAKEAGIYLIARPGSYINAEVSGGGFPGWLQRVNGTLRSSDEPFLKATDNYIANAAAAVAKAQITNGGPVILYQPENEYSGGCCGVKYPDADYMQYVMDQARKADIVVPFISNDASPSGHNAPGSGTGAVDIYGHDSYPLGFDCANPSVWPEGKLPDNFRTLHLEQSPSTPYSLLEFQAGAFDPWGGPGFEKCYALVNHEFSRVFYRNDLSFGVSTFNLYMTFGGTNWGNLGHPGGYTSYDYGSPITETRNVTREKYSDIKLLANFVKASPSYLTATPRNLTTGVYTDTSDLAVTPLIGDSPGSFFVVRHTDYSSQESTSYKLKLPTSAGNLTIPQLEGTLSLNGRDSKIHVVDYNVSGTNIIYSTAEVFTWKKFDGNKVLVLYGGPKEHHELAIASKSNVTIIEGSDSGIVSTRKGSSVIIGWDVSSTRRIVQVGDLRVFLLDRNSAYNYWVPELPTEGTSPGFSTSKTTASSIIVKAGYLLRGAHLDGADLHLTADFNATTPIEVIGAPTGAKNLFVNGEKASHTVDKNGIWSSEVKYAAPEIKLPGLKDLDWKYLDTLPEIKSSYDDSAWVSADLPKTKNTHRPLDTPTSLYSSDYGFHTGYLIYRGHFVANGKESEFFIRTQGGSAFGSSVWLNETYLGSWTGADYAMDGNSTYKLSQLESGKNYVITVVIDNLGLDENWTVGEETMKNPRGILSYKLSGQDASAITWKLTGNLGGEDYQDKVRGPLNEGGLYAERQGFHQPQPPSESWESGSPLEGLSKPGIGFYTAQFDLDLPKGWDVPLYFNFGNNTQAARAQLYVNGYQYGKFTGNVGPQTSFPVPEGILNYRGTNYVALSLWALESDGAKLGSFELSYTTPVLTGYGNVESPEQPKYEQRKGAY
Kind of experiment: Enzyme kinetics with 2-nitrophenyl β-D-galactopyranoside, absorbance at […] nm, Lineweaver–Burk analysis, pH […] °C. It counts as biochemical.

A word on the Ki: it is the equilibrium dissociation constant of an inhibitor or competing ligand from its target. A lower Ki goes with a stronger hold on the target. Molecule `OC[C@H]1O[C@@H](N2[C@@H]3[C@H]4CC[C@H](C4)[C@@H]32)[C@H](O)[C@@H](O)[C@H]1O` (stereo partly drawn) [compound 6, N‐(β‐D‐galactopyranosyl)‐exo‐3‐azatricyclo[3.2.1.0^2,4]octane] gave a Ki of 3.65 µM.
